Results published in patent publication US10047105B2, “Gyrase inhibitors” (Merck Sharp & Dohme Corp., priority 2009, dated 2018).
In brackets after ≈: the same amount, converted by molar mass.

Legend:
Format in all cases: cell-based
E. coli 8 ATCC 25922 = test: MIC, E. coli 8 (wt); conditions: E. coli 8 (EC8)
S. pneumoniae ATCC 51916 = test: MIC, S. pneumoniae; conditions: S. pneumoniae (Spn52); in µg/mL
S. aureus ATCC 13709 = test: MIC, antibacterial potency, S. aureus; conditions: S. aureus (SA); in µg/mL

Structure (SMILES) | MIC EC8 (E. coli 8 ATCC 25922) [µg/mL] | MIC Spn52 (S. pneumoniae ATCC 51916) | MIC, SA (S. aureus ATCC 13709)
CCc1[nH]c2nc(Sc3ccc4[nH]c(N)nc(=O)c4c3)nc(N3CC[C@@H](N)C3)c2c1Cl [701,066] | > 64 | >64 | 4
NC1CN(c2nc(Sc3cnc4ccc[n+]([O-])c4c3)nc3[nH]c(C4CC4)c(Cl)c23)C1 [701,074] | 8 (≈ 18.2 µM) | 4 | 8
CCc1[nH]c2nc(Oc3ccc[n+]([O-])c3)nc(Oc3cccnc3)c2c1Br [701,093] | > 32 | 4 | <=0.5
CCc1[nH]c2nc(Sc3cnc4cccnc4c3)nc(N3CC4CC(C3)N(C(=O)OC(C)(C)C)C4)c2c1Cl (stereo not drawn) [701,132] | > 64 | >64 | >64
CCc1[nH]c2nc(Oc3ccc4nccnc4c3)nc(Oc3ccc(C#N)cc3Cl)c2c1Br [701,287] | > 64 | >64 | >64
CCc1[nH]c2nc(Oc3cccc(S(C)(=O)=O)c3)nc(Oc3ccc4nccnc4c3)c2c1Br [701,095] | > 64 | <=0.5 | <=0.5
N[C@@H]1CCN(c2nc(Sc3cnc4ccc[n+]([O-])c4c3)nc3[nH]c(C4CC4)c(Cl)c23)C1 [701,075] | 8 (≈ 17.6 µM) | 8 | 8
CCc1[nH]c2nc(Sc3cnc(N4CCC4)c([N+](=O)[O-])c3)nc(N3CC[C@@H](N)C3)c2c1Cl [701,089] | > 64 | 4 | 2
CCc1[nH]c2nc(Sc3cnc4cccnc4c3)nc(N3CCC(CNS(C)(=O)=O)C3)c2c1Cl (stereo not drawn) [701,042] | > 64 | 1 | <=0.5
CCc1[nH]c2nc(Oc3cnc(C)nc3)nc(OC3CCNC3)c2c1Cl (stereo not drawn) [701,291] | 64 (≈ 171 µM) | 16 | 32
CCc1[nH]c2nc(Oc3cnc(N)nc3)nc(Oc3cnc(N)nc3)c2c1Br [701,106] | > 64 | 4 | 2
CCc1[nH]c2nc(Sc3cnc(N)nc3)nc(N3CC4C(C3)C4(N)C(N)=O)c2c1Cl (stereo not drawn) [700,968] | > 64 | >64 | 2
CCc1[nH]c2nc(Sc3ccc4c(N5CCC(N)CC5)nc(C)nc4c3)nc(N3CC[C@@H](N)C3)c2c1Cl [700,983] | 32 (≈ 59.5 µM) | 32 | 32
CCc1[nH]c2nc(Oc3cnc4c(c3)ncn4C)nc(Oc3cnc4c(c3)ncn4C)c2c1Br [700,939] | > 64 | 1 | <=0.5
CCc1[nH]c2nc(Sc3cnc4nccnc4c3)nc(N3CCC4CN[C@H]4C3)c2c1Cl (stereo partly drawn) [701,102] | 16 (≈ 35.3 µM) | 1. | <=0.5
CCc1[nH]c2nc(Oc3ccc4nccnc4c3)nc(N3CC4C(C3)C4(N)C(N)=O)c2c1Br (stereo not drawn) [700,980] | > 32 | 2 | <=0.5
CCc1[nH]c2nc(Oc3ccc4c(c3)ncc[n+]4[O-])nc(Oc3ccc4c(c3)ncc[n+]4[O-])c2c1Br [701,058] | > 32 | <=0.5 | <=0.5
CCc1[nH]c2nc(Oc3ccc4nccnc4c3)nc(Oc3ccc4c(c3)ncn4C)c2c1Br [700,998] | > 64 | 1 | <=0.5
CCc1[nH]c2nc(Oc3cnc4c(c3)ncn4C)nc(Oc3cncc(OC)c3)c2c1Br [700,964] | > 64 | <=0.5 | <=0.5
CCc1[nH]c2nc(Oc3cncnc3)nc(Oc3cc(O)cc(C#N)c3)c2c1Br [701249-2] | 4 (≈ 8.83 µM) | <=0.5 | <=0.5
CCc1[nH]c2nc(Sc3ccc4nc(C)nc(N5CC(CN)C5)c4c3)nc(N3CC[C@@H](N)C3)c2c1Cl [700,914] | 32 (≈ 61.1 µM) | >64 | 64
CCc1[nH]c2nc(Oc3ccc4nccnc4c3)nc(N3CC4C(C3)C4(N)C(N)=O)c2c1Cl (stereo not drawn) [700,989] | > 64 | <=0.5 | <=0.5

Structure (SMILES) | MIC EC8 (E. coli 8 ATCC 25922) [µg/mL] | MIC Spn52 (S. pneumoniae ATCC 51916) | MIC, SA (S. aureus ATCC 13709)
CC(C)(C)OC(=O)N[C@@H]1CCN(c2nc(Sc3cnc4nccnc4c3)nc3[nH]c(C4CC4)c(Cl)c23)C1 [700,978] | > 64 | >64 | >64
CCc1[nH]c2nc(Sc3cnc4ccc[n+]([O-])c4c3)nc(N3C[C@@H]4[C@@H](CN)[C@@H]4C3)c2c1Cl [701,269] | 8 (≈ 17.1 µM) | <=0.5 | <=0.5
CCc1[nH]c2nc(Sc3ccc4c(N5CC(N)C5)ncnc4c3)nc(N3C[C@@H]4[C@H](C3)[C@@]4(N)C(N)=O)c2c1Cl [700,960] | > 32 | 2 | 2
CCc1[nH]c2nc(Oc3ccc4c(c3)ncc[n+]4[O-])nc(Oc3ccc4nccnc4c3)c2c1Cl [701,061] | > 32 | <=0.5 | <=0.5
CCc1[nH]c2nc(Sc3ccc4cc5c([n+]([O-])c4c3)CCN(C(=O)CCCC[C@@H]3SC[C@@H]4NC(=O)N[C@@H]43)C5)nc(N3CC4C(C3)C4(N)C(N)=O)c2c1Cl (stereo partly drawn) [701,229] | > 64 | 32 | 4
CCc1[nH]c2nc(Oc3cncc(C(=O)OC)c3)nc(N3CC4C(N)C4C3)c2c1Cl (stereo not drawn) [701,163] | > 64 | >64 | >64
CCc1[nH]c2nc(Oc3ccc4nccnc4c3)nc(N3CCOCC3)c2c1Cl [701,029] | > 64 | 4 | 2
CCc1[nH]c2nc(Oc3cncc(OC)c3)nc(Oc3cccc(C#N)c3)c2c1Br [700,982] | > 64 | <=0.5 | <=0.5
CCc1[nH]c2nc(Oc3ccc4nccnc4c3)nc(Oc3ccc4nccnc4c3)c2c1Br [700,938] | > 64 | <=0.5 | <=0.5
CCc1[nH]c2nc(Sc3cnc4nccnc4c3)nc(N3C[C@@H]4[C@H](C3)[C@@]4(N)CO)c2c1Cl [701,144] | 32 (≈ 68.2 µM) | 2 | <=0.5
CCc1[nH]c2nc(Sc3cnc4cccnc4c3)nc(N3C[C@H](N)[C@H](C(=O)NCC(C)O)C3)c2c1Cl (stereo partly drawn) [701,018] | > 64 | 16 | >64
CCc1[nH]c2nc(Oc3ccc[n+]([O-])c3)nc(Oc3cccc(C#N)c3)c2c1Br [701,267] | 32 (≈ 70.8 µM) | <=0.5 | <=0.5
CCc1[nH]c2nc(Sc3cnc4nccnc4c3)nc(N3CC4NC4C3)c2c1Cl (stereo not drawn) [701,118] | 64 (≈ 151 µM) | 2 | 4
CCc1[nH]c2nc(Oc3cncc(C#N)c3)nc(Oc3cc(O)cc(C#N)c3)c2c1Br [701,268] | 4 (≈ 8.38 µM) | <=0.5 | <=0.5
CCc1[nH]c2nc(Sc3ccc4cc5c([n+]([O-])c4c3)CCOC5)nc(N3CC[C@@H](N)C3)c2c1Cl [701,083] | 16 (≈ 32.2 µM) | 1 | <=0.5
CCc1[nH]c2nc(Sc3cnc4ccc[n+]([O-])c4c3)nc(N3CC4CNC4C3)c2c1Cl (stereo not drawn) [701,025] | 16 (≈ 35.2 µM) | 2 | <=0.5
NC1C2CN(c3nc(Sc4cnc5ccc[n+]([O-])c5c4)nc4[nH]c(CC(F)(F)F)c(Cl)c34)CC12 (stereo not drawn) [701,236] | > 64 | >64 | >64
CCc1[nH]c2nc(Sc3ccc4[nH]c(C(F)(F)F)cc(=O)c4c3)nc(N3CC[C@@H](N)C3)c2c1Cl [700,918] | > 64 | 8 | 2
CCc1[nH]c2nc(Sc3cnc4nccnc4c3)nc(N3CC4CC(O)C4C3)c2c1Cl (stereo not drawn) [700,957] | > 32 | 1 | <=0.5
CCc1[nH]c2nc(Oc3ccc4nccnc4c3)nc(N3CC(CN(C)C)C3)c2c1Br [701,114] | > 64 | 16 | 8
CCc1[nH]c2nc(Oc3cncnc3)nc(N3CCC(N)C3)c2c1Cl (stereo not drawn) [700,910] | > 64 | >64 | >64
